Source: US8784373B2, “Drug delivery by carbon nanotube arrays” (California Institute of Technology, priority 2010, dated 2014)
Entries after “also recorded” stand apart in the source; their conditions may differ.

Columns and labels:
[1] = Rubbing experiment (mechanical drug removal) with glass slide; assay type: physicochemical; details: for flutax-1 removed (washed-out) by rubbing: approx. 125 μg deposited, 1 μL DI water, 500 g weight, 60 seconds
Procedure: Another experiment was performed that targeted possible drug removal from CNT-fitted drug delivery platform by mechanical (e.g., rubbing) actions during its cardiovascular travel. Two types of specimens were used, a bare sheet of latex and a sheet of latex with CNTs anchored on one side. On each specimen, approximately 125 μg of flutax-1 was deposited by successively dropping small volumes of its ethanol solution and allowed to dry. Next, 1 μL of DI water followed by a microscopic 3×1×5/128-inch glass slide was put on each specimen. Finally, with a 500 g weight on top of it, the microscopic slide was moved back and forth a few millimeters at about 1 cm/sec for 60 seconds (FIG. 8). […] After the test, each of the two specimens was dropped in 2 mL of pure ethanol to see if they still had flutax-1 left on them.

[2] = Diffusion of flutax-1 from anchored CNT array; assay type: physicochemical
[3] = paclitaxel-eluting composite fibers, most of it over 30 days; cited from earlier work

| SMILES | flutax-1 remaining after rubbing, recovered in 2 mL pure ethanol ([1]; CNT-fitted latex sheet) | flutax-1 removed (washed-out) by rubbing ([1]; CNT-fitted latex sheet) | flutax-1 remaining after rubbing, recovered in 2 mL pure ethanol ([1]; bare latex sheet) | flutax-1 removed (washed-out) by rubbing ([1]; bare latex sheet) | movement (diffusion) of flutax-1 molecules ([2]; in DI water) | movement (diffusion) of flutax-1 molecules, time scale ([2]; in agar) | drug delivered from stent [3] |
| --- | --- | --- | --- | --- | --- | --- | --- |
| CC(=O)O[C@H]1C(=O)[C@@]2(C)C([C@H](OC(=O)c3ccccc3)[C@]3(O)C[C@H](OC(=O)[C@H](O)[C@@H](NC(=O)c4ccccc4)c4ccccc4)C(C)=C1C3(C)C)[C@]1(OC(C)=O)CO[C@@H]1C[C@@H]2OC(=O)[C@H](C)NC(=O)c1ccc(-c2c3ccc(=O)cc-3oc3cc(O)ccc23)c(C(=O)O)c1 (stereo partly shown) [flutax-1] | much flutax-1 still remains; also recorded: considerably more flutax-1 released | almost no | no more flutax-1 remains | significant amount; also recorded: considerably higher flutax-1 removal | did not move appreciably | in a matter of minutes | – |
| CC(=O)O[C@H]1C(=O)[C@@]2(C)[C@H]([C@H](OC(=O)c3ccccc3)[C@]3(O)C[C@H](OC(=O)[C@H](O)[C@@H](NC(=O)c4ccccc4)c4ccccc4)C(C)=C1C3(C)C)[C@]1(OC(C)=O)CO[C@@H]1C[C@@H]2O [paclitaxel] | – | – | – | – | – | – | about 40% |
